Positions count from the first letter of the chain named. Calls of active or inactive are those of the source. The calls are words filed in the database; no cut-off is given here.
What was measured:
[1] = target: T1, Tyrosine-protein phosphatase non-receptor type 11 (Homo sapiens) (UniProt Q06124); assay: Inhibition of allosterically sensitized mutant form of His6-tagged human SHP2 catalytic domain using pNPP as substrate after 90 mins by quenched phosphatase activity assay
T1 sequence (whole entry): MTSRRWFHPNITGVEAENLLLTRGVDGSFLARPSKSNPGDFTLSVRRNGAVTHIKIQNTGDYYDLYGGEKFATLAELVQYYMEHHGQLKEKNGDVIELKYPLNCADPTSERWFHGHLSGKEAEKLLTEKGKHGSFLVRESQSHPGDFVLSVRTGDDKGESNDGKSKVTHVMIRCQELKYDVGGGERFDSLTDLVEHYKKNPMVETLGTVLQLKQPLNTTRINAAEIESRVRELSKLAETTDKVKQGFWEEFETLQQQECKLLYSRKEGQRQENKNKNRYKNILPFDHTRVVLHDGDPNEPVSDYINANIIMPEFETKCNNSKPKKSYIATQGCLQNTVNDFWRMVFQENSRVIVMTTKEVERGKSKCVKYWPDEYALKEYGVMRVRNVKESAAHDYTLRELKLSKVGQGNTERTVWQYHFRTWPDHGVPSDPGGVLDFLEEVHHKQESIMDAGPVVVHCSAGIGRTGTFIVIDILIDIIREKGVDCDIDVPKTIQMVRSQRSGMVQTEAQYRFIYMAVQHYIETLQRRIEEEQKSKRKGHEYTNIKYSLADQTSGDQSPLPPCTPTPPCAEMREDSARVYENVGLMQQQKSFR

[2] = tested on: T2, Tyrosine-protein phosphatase non-receptor type 7 (Homo sapiens), P35236 [P171C,V205C]; assay: Inhibition of allosterically sensitized mutant form of His6-tagged human HePTP catalytic domain using pNPP as substrate incubated for 90 mins by quenched phosphatase activity assay
T2 sequence (whole entry): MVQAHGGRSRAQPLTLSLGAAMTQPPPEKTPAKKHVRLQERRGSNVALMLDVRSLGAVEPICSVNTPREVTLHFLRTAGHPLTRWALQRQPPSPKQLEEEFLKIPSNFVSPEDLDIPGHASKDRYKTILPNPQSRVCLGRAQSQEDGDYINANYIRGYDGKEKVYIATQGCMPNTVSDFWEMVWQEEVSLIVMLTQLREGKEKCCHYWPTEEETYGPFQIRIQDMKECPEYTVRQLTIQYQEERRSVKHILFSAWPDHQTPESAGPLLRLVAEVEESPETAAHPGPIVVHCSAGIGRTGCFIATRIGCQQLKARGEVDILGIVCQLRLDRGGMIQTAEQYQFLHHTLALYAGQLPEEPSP

[3] = tested on: Tyrosine-protein phosphatase non-receptor type 7 (Homo sapiens), P35236 [UNDEFINED MUTATION]; assay: Inhibition of allosterically sensitized mutant form of His6-tagged human wild-type HePTP catalytic domain at 1.92 uM using pNPP as substrate incubated for 90 mins by quenched phosphatase activity assay
[4] = target: T3, Tyrosine-protein phosphatase non-receptor type 7 (Homo sapiens) (UniProt P35236); assay: Inhibition of His6-tagged human wild-type HePTP catalytic domain overexpressed in Escherichia coli BL21(DE3) cells at 100 uM using pNPP as substrate incubated for 90 mins by quenched phosphatase activity assay
T3 sequence (whole entry): T2 sequence (whole entry) with C171P, C205V

[5] = tested on: Tyrosine-protein phosphatase non-receptor type 7 (Homo sapiens), P35236 [UNDEFINED MUTATION]; assay: Inhibition of Inhibition of allosterically sensitized mutant form of His6-tagged […] human HePTP catalytic domain overexpressed in Escherichia coli BL21(DE3) cells at 25 uM using pNPP as substrate incubated for 90 mins by quenched phosphatase activity assay
[6] = target: Tyrosine-protein phosphatase non-receptor type 7 (Homo sapiens, UniProt P35236, P171C/V205C); assay: Inhibition of allosterically sensitized mutant form of His6-tagged human HePTP catalytic domain overexpressed in Escherichia coli crude cell lysate using pNPP as substrate incubated for 90 mins by quenched phosphatase activity assay
[7] = tested on: T4, Tyrosine-protein phosphatase non-receptor type 1 (Homo sapiens), P18031 [P87C,A122C]; assay: Inhibition of allosterically sensitized His6-tagged human PTP1B catalytic domain P87C/A122C mutant overexpressed in Escherichia coli BL21(DE3) cells using pNPP as substrate incubated for 90 mins by quenched phosphatase activity assay
T4 sequence (whole entry): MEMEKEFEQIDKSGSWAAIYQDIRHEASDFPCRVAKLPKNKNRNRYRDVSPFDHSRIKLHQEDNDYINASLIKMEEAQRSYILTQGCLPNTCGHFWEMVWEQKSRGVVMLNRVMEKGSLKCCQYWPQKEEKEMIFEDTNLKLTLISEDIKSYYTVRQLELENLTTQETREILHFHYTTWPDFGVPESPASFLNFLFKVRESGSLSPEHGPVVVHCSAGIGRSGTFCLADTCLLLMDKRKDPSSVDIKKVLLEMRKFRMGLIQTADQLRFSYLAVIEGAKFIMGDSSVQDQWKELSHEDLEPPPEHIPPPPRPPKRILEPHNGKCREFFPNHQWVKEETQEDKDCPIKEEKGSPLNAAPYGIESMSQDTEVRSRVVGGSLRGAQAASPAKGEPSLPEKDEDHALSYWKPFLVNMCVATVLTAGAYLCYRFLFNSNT

[8] = target: T5, Tyrosine-protein phosphatase non-receptor type 1 (Homo sapiens) (UniProt P18031); assay: Binding affinity to His6-tagged human wild-type PTP1B catalytic domain overexpressed in Escherichia coli BL21(DE3) cells at 100 uM using pNPP as substrate after 90 mins by SDS-PAGE analysis
T5 sequence (whole entry): T4 sequence (whole entry) with C87P, C122A

[9] = target: T5, Tyrosine-protein phosphatase non-receptor type 1 (Homo sapiens); assay: Inhibition of His6-tagged human wild-type PTP1B catalytic domain at 2000 nM using pNPP as substrate incubated for 90 mins by quenched phosphatase activity assay

Chain of Tyrosine-protein phosphatase non-receptor type 7 (Homo sapiens), P35236 [UNDEFINED MUTATION] (P35236 whole entry, looked up, stated change not applied, the tested form may be a part): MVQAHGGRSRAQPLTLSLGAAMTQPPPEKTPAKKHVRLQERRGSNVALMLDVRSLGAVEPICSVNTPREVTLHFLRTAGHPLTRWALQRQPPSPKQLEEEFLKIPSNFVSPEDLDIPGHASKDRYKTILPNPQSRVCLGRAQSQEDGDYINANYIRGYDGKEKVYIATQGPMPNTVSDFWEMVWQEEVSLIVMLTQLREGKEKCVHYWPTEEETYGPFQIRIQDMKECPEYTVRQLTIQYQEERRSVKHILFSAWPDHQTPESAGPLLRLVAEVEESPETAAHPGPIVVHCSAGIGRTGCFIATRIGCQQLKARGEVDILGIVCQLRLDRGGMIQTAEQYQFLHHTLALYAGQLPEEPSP

SMILES	inhibition [1]	inhibition [2]	inhibition [3] [%]	inhibition [4]	inhibition [5]	IC50 [6] [nM]	inhibition [7]	Activity [8]	inhibition [9]
O=C(O)c1ccccc1-c1c2ccc(=O)c([As]3SCCS3)c-2oc2c([As]3SCCS3)c(O)ccc12	Dose-dependent effect	Dose-dependent effect	50	inactive	Active	250			
CC1(C)C(/C=C/C=C2/N(CCCCS(=O)(=O)O)c3ccc([As]4SCCS4)cc3C2(C)C)=[N+](CCCCS(=O)(=O)O)c2ccc([As]3SCCS3)cc21							Dose-dependent effect	inactive	inactive
